From patent US4761405A, “Antagonists of specific excitatory amino acid neurotransmitter receptors having increased potency” (priority 1987, dated 1988)
Several values for one entry are separate records, joined by “and”; a condition that tells them apart may be missing. Equal entries are not always repeated. Entries after “also recorded” stand apart in the source; their conditions may differ. Where two headings read alike, the source gives them in different places.

Legend:
[1] = system: KA receptors (rat forebrain membranes); assay: In vitro receptor binding: inhibition of specific [3H]KA binding; conditions: for Percent inhibition of specific ligand binding, [3H]KA: 50 μM compound, 2 nM ligand, pH 7.4, 90 min, 2° C., mean ± S.E.M. of three determinations
Description: (§1) The potency of the compound described in example IV to inhibit the specific binding of various EAA ligands to rat forebrain membranes was examined using standard in vitro binding techniques. Specifically, example IV was evaluated for potency to inhibit the specific binding of [^3 H]kainic acid ([^3 H]KA),[^3 H]RS-α-amino-3-hydroxy-5-methyl-4-isoxazole propionic acid([^3 H]AMPA) and [^3 H]3-(2-carboxypiperazin-4-yl) propyl-1-phosphonic acid([^3 H]CPP) to KA, QUIS and NMDA receptors, respectively.
(§2) Methods were as follows: rat forebrain membranes were prepared as described by Enna and Synder [Mol. Pharmacology, 13, 422-453 (1977)] and the "buffy coat" preparation was washed three additional times by centrifugation (45,000 g; 10 min; 4° C.) with intermittent resuspensions (20 vol; w/v) in fresh buffer (Tris HCl; 0.05M; pH 7.4; 23° C.). Following the final wash, pellets were stored frozen (-20° C.) until used.
(§3) On the day of assay, pellets were thawed to room temperature, resuspended in buffer (Tris HCl; 0.05 M; various pH; 23° C.) and washed three additional times by centrifugation as described in the preceeding paragraph. For assay, the washed tissue was resuspended in buffer at a concentration of 10 mg/mL. All procedures were performed using triplicate incubations in a final volume of 2 mL which consisted of the tissue suspension (1 mL), ligand, the compound(s) of interest and 1 mL of buffer. In every instance, Glu (10^-3 M) was used to determine nonspecific binding. Assays were terminated by centrifugation (45,000 g; 10 min; 4° C.), the pellet was washed rapidly and superficially with 2×2.5 mL of ice-cold buffer and dissolved in 1 mL of Protosol® (New England Nuclear, Boston, Mass.). Following the addition of 6 mL of Econfluor® (New England Nuclear, Boston, Mass.) radioactivity was determined using conventional liquid scintillation spectrophotometry.
Specific binding of [^3 H]KA (S.A.=60 Ci/mmol, New England Nuclear, Boston, Mass.) was examined according to the method of London and Coyl [(Mol. Pharmacol., 15, 492-505 (1979)] using Tris HCl buffer (pH 7.4). Incubations were conducted for 90 min at 2° C. using a final ligand concentration of 2 nM.
(§4) All assays were performed on three separate occassions. Appropriate reference compounds were evaluated in each assay and experiment using parallel incubations. All compounds were examined at a single concentration (50 uM) and activity was expressed as the percent inhibition of specific binding of each ligand.
(§5) Method(s) have been described in the text. Values shown are the means ±S.E.M. of three separate determinations performed using triplicate incubations and are expressed as the percent inhibition of specifically bound ligand. All drugs were tested at a single concentration of 50 μM.

[2] = system: NMDA receptors (rat forebrain membranes); assay: In vitro receptor binding: inhibition of specific [3H]CPP binding; conditions: for Percent inhibition of specific ligand binding, [3H]CPP: 50 μM compound, 8 nM ligand, pH 7.4, 30 min, 23° C., mean ± S.E.M. of three determinations; for Inhibition of [3H]CPP binding / interaction with NMDA-type receptors, in words: 50 μM
Description: as §1, §2, §3
Specific binding of [^ 3H]CPP (S.A.=27 Ci/mmol, New England Nuclear, Boston, Mass.) was examined using a modification of the method of Murphy et al., [(J. Pharmacol. Exp. therap., (in press)] using Tris HCl buffer (pH 7.4). Incubations were conducted for 30 min at 23° C. using a final ligand concentration of 8 nM.
as §4, §5

[3] = system: QUIS receptors (rat forebrain membranes); assay: In vitro receptor binding: inhibition of specific [3H]AMPA binding; conditions: for Percent inhibition of specific ligand binding, [3H]AMPA: 50 μM compound, 4 nM ligand, pH 6.9, 100 mM KSCN, 60 min, 4° C., mean ± S.E.M. of three determinations; for Inhibition of [3H]AMPA binding, in words: 50 μM
Description: as §1, §2, §3
Specific [^3 H]AMPA (S.A.=27.5 Ci/mmol, New England Nuclear, Boston, Mass.) binding was examined according to the method of Murphy et al., [(Soc. Neurosci. Abs., 11, 109, (1985)] using Tris HCl buffer (pH 6.9) supplemented with 100 mM KSCN. Incubations were conducted for 60 min at 4° C. using a final ligand concentration of 4 nM.
as §4, §5

[4] = system: maximal electroshock (MES)-induced seizures; assay: Protection against maximal electroshock (MES)-induced seizures; type: in vivo, male CF-1 mice; conditions: for ED50: Mus musculus, 0.5 h, ip, 30 min prior; for ED50 / ED50, maximal electroshock, icv: 50 mA, 0.2 s; for ED50, maximal electroshock, icv: 15 min prior
Description: The anticonvulsant properties of example IV and of the reference compound DL(±)AP7 against seizures induced by maximal electroshock (MES) were evaluated using mice.
For testing, electrodes were clipped to the ears of male CF-1 mice (20-25 g; Charles Rivers) and a current of 50 mA was delivered for 0.2 seconds to produce seizures. Drugs were dissolved in saline (0.9%; w/v) and administered fifteen minutes (ICV) or thirty minutes (IP) prior to testing. Injection protocols and group size were identicl to those described in example VI. […] Seizures were scored as being present or absent. Data was calculated as described in example VI.
(§6) Method(s) have been described in the text. Where ED50 's are shown,
(§7) *Where ninetyfive percent confidence limits are not shown, the values

[5] = system: pentylenetetrazol (PTZ)-induced seizures; assay: Protection against pentylenetetrazol (PTZ)-induced seizures; type: in vivo, male CF-1 mice
Description: The anticonvulsant properties of example IV and of the reference compound DL(±)AP7 against seizures induced by subcutaneous (s.c.) injection of pentylenetetrazol (PTZ) were evaluated using mice.
For testing, PTZ was dissolved in saline (0.9%; w/v) and administered to male CF-1 mice (Charles Rivers: 20-25 g) at a dose of 90 mg/kg (s.c.) fifteen minutes (ICV) or thirty minutes (IP) after the administration of the test compounds. Example IV and the reference compound were dissolved in sline and administered in a final volume of 5 μL (ICV) or 200 μL (IP). […] Presence of seizures was defined as one or more episodes of clonic activity having a duration of five seconds or greater. Following preliminary dose-ranging studies, dose-response curves were generated using at least five different doses of each compound with eight animals at each dose. The dose of drug required to protect fifty percent (ED50) of the test animals from PTZ-induced seizures was calculated using log-logit analysis. Ninety-five percent confidence intervals (CL95) were calculated using the method of Litchfield and Wilcoxon [J. Pharmacol. Exp. Therap., 96, 99-113 (1949)].
as §6, §7

[6] = system: cultured rat hippocampal neurones; conditions: cited from earlier work
[7] = ">" = maximum dose tested, no animals protected, read-out: ED50, maximal electroshock, ip (mg/kg)
[8] = ">" = maximum dose tested, no animals protected, read-out: ED50, maximal electroshock, ip (mmol/kg)
[9] = ">" = maximum dose tested, no animals protected
[10] = icv, 15 min before PTZ 90 mg/kg s.c.
[11] = Mus musculus, ip, 30 min before PTZ 90 mg/kg s.c.; ">" = maximum dose tested, no animals protected

Row | Molecule | Percent inhibition of specific ligand binding, [3H]KA [1] [%] | Percent inhibition of specific ligand binding, [3H]CPP [2] [%] | Percent inhibition of specific ligand binding, [3H]AMPA [3] [%] | ED50, maximal electroshock, icv [4, 9] | ED50, pentylenetetrazol, icv (nmoles) [5, 10] | ED50, pentylenetetrazol, icv (ug) [5, 10] | Inhibition of [3H]CPP binding / interaction with NMDA-type receptors, in words [2] | Inhibition of [3H]AMPA binding, in words [3] | also measured
1 | N[C@H](CCCCCP(=O)(O)O)C(=O)O [D(-)AP7, D(-)-2-amino-7-phosphonoheptanoic acid] | 17 ± 2 | 100 ± 0 | 7 ± 5 | – | – | – | – | – | –
2 | NC(CCCCCP(=O)(O)O)C(=O)O (racemic) [DL(±)AP7] | – | – | – | 6.8 µg and 7.3 µg | 6.8 nmol | 1.37 µg | – | – | Attenuation of MES-induced seizure activity, in words ([4]; ICV): dose-dependent protection; ED50 [4, 7]: 127 to 170 mg/kg; ED50 [4, 8]: 0.56 to 0.76 mmol/kg; ED50, maximal electroshock, icv [4]: 29 nmol and 34 nmol; ED50 ([5]; Mus musculus; ip, 30 min before PTZ 90 mg/kg s.c.): 780 to 880 µmol/kg; ED50 ([5]; Mus musculus; ip, 30 min before PTZ 90 mg/kg s.c.; ">" = maximum dose tested, no animals protected): 176 to 199 mg/kg
3 | δ-D-glutamyl glycine | – | – | – | – | – | – | – | – | Effect on toxicity of exogenously applied Glu and Asp ([6]; exogenously applied Glu and Asp): blocking the toxicity of exogenously applied Glu and Asp; Protection of neurones from degeneration ([6]; oxygen depletion): protect cultured rat hippocampal neurones from degeneration
4 | NC(CC1CCCCC1CCP(=O)(O)O)C(=O)O (stereo not shown) [Example IV, 2-amino-4.5-(1,2-cyclohexyl)-7-phosphonoheptanoic acid] | 9 ± 4 | 33 ± 9 | 1 ± 1 | 90 µg | 0.14 nmol and 0.19 nmol | 0.04 µg and 0.06 µg | interacts, albeit with moderate affinity, in a highly specific manner with NMDA-type receptors | without appreciable activity | Inhibition of [3H]KA binding, in words ([1]; 50 μM): least active; Inhibition of [3H]CPP binding / interaction with NMDA-type receptors, in words ([2]; listed as 3-(2-phosphonoethyl)cyclohexyl-2-aminopropionic acid): high affinity and selectivity; Attenuation of MES-induced seizure activity, in words ([4]; ICV): moderately potent; also recorded: relative lack of potency; fold less potent as an anticonvulsant in MES compared to its activity in the PTZ seizure model ([4]; ICV, MES vs PTZ): 360 fold; fold less potent than DL(±)AP7 as an anticonvulsant in the MES test ([4]; ICV, vs DL(±)AP7): approximately 11 fold; Prevention of MES-induced seizures on systemic administration ([4]; IP, up to 350 mg/kg, n=6): failed to prevent MES-induced seizures in any animal; ED50 [4, 7]: > 350 mg/kg; ED50 [4, 8]: > 1.2 mmol/kg; ED50, maximal electroshock, icv [4]: 314 nmol; fold more potent than DL(±)AP7 to prevent PTZ-induced seizures, ICV ([5]; ICV, vs DL(±)AP7): 30-40 fold; fold more potent than DL(±)AP7 to prevent PTZ-induced seizures, IP ([5]; IP, vs DL(±)AP7): approximately 2 fold; ED50 ([5]; Mus musculus, ip, 30 min before PTZ 90 mg/kg s.c.): 310 µmol/kg; ED50 [5, 11]: 90 mg/kg; ED50, pentylenetetrazol, ip ([5]; ip, 30 min before PTZ 90 mg/kg s.c.): 0.47 mmol/kg; ED50, pentylenetetrazol, ip ([5]; ip, 30 min before PTZ 90 mg/kg s.c.; ">" = maximum dose tested, no animals protected): 134 mg/kg; Anticonvulsant activity in PTZ seizure model, in words ([5]; mice): potent, novel and systemically active anticonvulsant agent; Anticonvulsant activity in PTZ seizure model, in words ([5]; mice; listed as 3-(2-phosphonoethyl)cyclohexyl-2-aminopropionic acid): provide protection in pentylenetetrazol (PTZ) induced seizures
5 | Cc1onc(O)c1CC(N)C(=O)O (racemic) [AMPA, RS-α-amino-3-hydroxy-5-methyl-4-isoxazole propionic acid] | 64 ± 4 | 7 ± 4 | 100 ± 0 | – | – | – | without appreciable activity | most potent inhibitors of binding | –
6 | N[C@H](CCCP(=O)(O)O)C(=O)O [D(-)AP5, D(-)-2-amino-5-phosphonopentanoic acid] | 22 ± 1 | 95 ± 4 | 3 ± 2 | – | – | – | – | – | –
7 | NC(Cc1ccccc1CCP(=O)(O)O)C(=O)O (stereo not shown) [III, 2-Amino-4,5-benzo-7-phosphonoheptanoic acid] | – | – | – | > 100 µg | 44 nmol | 3.2 µg | – | – | ED50 [5, 11]: > 350 mg/kg
8 | NC(CCC1CCCCC1CP(=O)(O)O)C(=O)O (stereo not shown) [4-(2-phosphonomethyl)cyclohexyl-2-aminobutyric acid] | – | – | – | – | – | – | high affinity and selectivity | – | Anticonvulsant activity in PTZ seizure model, in words ([5]; mice): provide protection in pentylenetetrazol (PTZ) induced seizures
9 | C=C(C)[C@H]1CN[C@H](C(=O)O)[C@H]1CC(=O)O [KA, kainic acid] | 100 ± 0 | 3 ± 2 | 56 ± 5 | – | – | – | without appreciable activity | moderate activity | –
